Experimental data from PubChem BioAssay (NCI).
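Step 1: Grow cells in 96-well plates. Step 2: Expose to compound for 48 hours at 5 concentrations. Step 3: Interpolate endpoints linearly; if unreached, use highest concentration. TGI: concentration producing complete growth inhibition.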

Experiments:
Test in all cases: growth of human tumour cells (NCI), 48 h
[1] = tested on: SF-295 CNS
[2] = tested on: BT-549 breast
[3] = tested on: MCF7 breast
[4] = tested on: OVCAR-4 ovarian
[5] = tested on: LOX IMVI melanoma
[6] = tested on: 786-0 renal
[7] = tested on: NCI-H23 lung
[8] = tested on: OVCAR-3 ovarian
[9] = tested on: SK-OV-3 ovarian
[10] = tested on: NCI/ADR-RES ovarian
[11] = tested on: CCRF-CEM leukemia
[12] = tested on: MOLT-4 leukemia
[13] = tested on: KM12 colon
[14] = tested on: A498 renal
[15] = tested on: UACC-62 melanoma
[16] = tested on: MDA-N
[17] = tested on: HL-60(TB) leukemia
[18] = tested on: SF-539 CNS
[19] = tested on: SF-268 CNS
[20] = tested on: K-562 leukemia
[21] = tested on: SNB-19 CNS
[22] = tested on: EKVX NSCLC
[23] = tested on: DU-145 prostate
[24] = tested on: MDA-MB-231 breast
[25] = tested on: HCT-15 colon
[26] = tested on: HOP-62 NSCLC
[27] = tested on: HCT-116 colon
[28] = tested on: TK-10 renal
[29] = tested on: MDA-MB-435
[30] = tested on: ACHN renal
[31] = tested on: NCI-H522 lung
[32] = tested on: U251 CNS
[33] = tested on: SK-MEL-28 melanoma
[34] = tested on: RXF 393 renal
[35] = tested on: NCI-H226 lung
[36] = tested on: NCI-H460 lung
[37] = tested on: COLO 205 colon
[38] = tested on: T-47D breast
[39] = tested on: HS 578T breast
[40] = tested on: UACC-257 melanoma
[41] = tested on: SK-MEL-5 melanoma
[42] = tested on: CAKI-1 renal
[43] = tested on: A549 NSCLC
[44] = tested on: PC-3 prostate
[45] = tested on: HCC-2998 colon
[46] = tested on: HOP-92 NSCLC
[47] = tested on: M14 melanoma
[48] = tested on: HT29 colon
[49] = tested on: SNB-75 CNS
[50] = tested on: RPMI-8226 leukemia
[51] = tested on: SR leukemia
[52] = tested on: SN12C renal
[53] = tested on: OVCAR-8 ovarian
[54] = tested on: SK-MEL-2 melanoma
[55] = tested on: UO-31 renal
[56] = tested on: IGROV1 ovarian
[57] = tested on: OVCAR-5 ovarian
[58] = tested on: SW-620 colon
[59] = tested on: MALME-3M melanoma

For `CC(=O)c1ccc(Nc2c3c(nc4ccccc24)CCCC3)cc1`, the TGI [1] was over 43.2 µM, the TGI [2] was over 41.3 µM and the TGI [3] was over 100 µM. The TGI [4] was over 100 µM, the TGI [5] was over 41.4 µM and the TGI [6] was over 100 µM. It also gave a TGI [7] of 43.4 µM, a TGI [8] of over 44.7 µM and a TGI [9] of over 70.8 µM. For the same compound, the TGI [10] was 56.2 µM, the TGI [11] was over 100 µM and the TGI [12] was 73.8 µM. It also gave a TGI [13] of over 36 µM, a TGI [14] of over 59.7 µM and a TGI [15] of over 56 µM. For the same compound, the TGI [16] was 11.2 µM, the TGI [17] was over 100 µM and the TGI [18] was over 100 µM. The TGI [19] was over 100 µM, the TGI [20] was over 100 µM and the TGI [21] was 99.5 µM. It also gave a TGI [22] of over 84.6 µM, a TGI [23] of over 65 µM and a TGI [24] of over 100 µM. For the same compound, the TGI [25] was over 100 µM, the TGI [26] was over 47.3 µM and the TGI [27] was over 72 µM. It also gave a TGI [28] of over 100 µM, a TGI [29] of 13.8 µM and a TGI [30] of over 100 µM. It also gave a TGI [31] of 16.6 µM, a TGI [32] of over 59.2 µM and a TGI [33] of over 100 µM. For the same compound, the TGI [34] was 72.4 µM, the TGI [35] was over 100 µM and the TGI [36] was over 66.8 µM. For the same compound, the TGI [37] was over 51.1 µM, the TGI [38] was over 52.2 µM and the TGI [39] was over 88 µM. It also gave a TGI [40] of over 74 µM, a TGI [41] of over 59.2 µM and a TGI [42] of over 44 µM. The TGI [43] was over 95.5 µM, the TGI [44] was over 100 µM and the TGI [45] was over 100 µM. For the same compound, the TGI [46] was over 88.8 µM, the TGI [47] was 41.7 µM and the TGI [48] was 42.6 µM. It also gave a TGI [49] of 22.1 µM, a TGI [50] of over 100 µM and a TGI [51] of 74.2 µM. For the same compound, the TGI [52] was over 100 µM, the TGI [53] was 70.9 µM and the TGI [54] was over 100 µM. It also gave a TGI [55] of over 67.1 µM, a TGI [56] of 23.8 µM and a TGI [57] of 97.9 µM. It also gave a TGI [58] of over 78.8 µM.

`COC(=O)[C@@H]1[C@@H]2NC(=S)N[C@@]1(C)Oc1ccccc12` was tested, and the TGI [1] was over 100 µM, the TGI [2] was over 100 µM and the TGI [3] was over 100 µM. For the same compound, the TGI [4] was over 100 µM, the TGI [5] was over 100 µM and the TGI [6] was over 100 µM. For the same compound, the TGI [7] was over 100 µM, the TGI [8] was over 100 µM and the TGI [9] was over 100 µM. The TGI [10] was over 100 µM, the TGI [11] was over 100 µM and the TGI [12] was over 100 µM. For the same compound, the TGI [13] was over 100 µM, the TGI [14] was over 100 µM and the TGI [15] was over 100 µM. It also gave a TGI [16] of 88.1 µM, a TGI [18] of over 100 µM and a TGI [19] of over 100 µM. For the same compound, the TGI [20] was over 100 µM, the TGI [21] was over 100 µM and the TGI [22] was over 100 µM. It also gave a TGI [23] of over 100 µM, a TGI [59] of over 100 µM and a TGI [24] of over 100 µM. For the same compound, the TGI [25] was over 100 µM, the TGI [26] was over 100 µM and the TGI [27] was over 100 µM. For the same compound, the TGI [28] was over 100 µM, the TGI [29] was 33.5 µM and the TGI [30] was over 100 µM. It also gave a TGI [31] of over 100 µM, a TGI [32] of over 100 µM and a TGI [33] of over 100 µM. For the same compound, the TGI [34] was over 100 µM, the TGI [35] was over 100 µM and the TGI [36] was over 100 µM. It also gave a TGI [37] of over 100 µM, a TGI [38] of over 100 µM and a TGI [39] of over 100 µM. It also gave a TGI [40] of over 100 µM, a TGI [41] of over 100 µM and a TGI [42] of over 100 µM. For the same compound, the TGI [44] was over 100 µM, the TGI [45] was over 100 µM and the TGI [46] was over 100 µM. It also gave a TGI [47] of over 100 µM, a TGI [48] of over 100 µM and a TGI [49] of over 100 µM. It also gave a TGI [50] of over 100 µM, a TGI [51] of over 100 µM and a TGI [52] of over 100 µM. It also gave a TGI [53] of over 100 µM, a TGI [54] of over 100 µM and a TGI [55] of over 100 µM. For the same compound, the TGI [56] was over 100 µM, the TGI [57] was over 100 µM and the TGI [58] was over 100 µM.

`O=C(NCCN(CCNC(=O)c1cccc(O)c1O)CCNC(=O)c1cccc(O)c1O)c1cccc(O)c1O` showed a TGI [1] of over 100 µM, a TGI [2] of over 100 µM and a TGI [3] of over 100 µM. The TGI [4] was over 100 µM, the TGI [5] was over 51.5 µM and the TGI [6] was over 100 µM. For the same compound, the TGI [7] was over 57.4 µM, the TGI [8] was over 40.2 µM and the TGI [9] was over 100 µM. The TGI [10] was over 100 µM, the TGI [13] was over 100 µM and the TGI [14] was over 100 µM. The TGI [15] was 48 µM, the TGI [16] was over 100 µM and the TGI [17] was over 100 µM. For the same compound, the TGI [18] was over 100 µM, the TGI [19] was over 100 µM and the TGI [20] was over 100 µM. The TGI [21] was over 100 µM, the TGI [22] was over 100 µM and the TGI [23] was over 78.9 µM. It also gave a TGI [59] of over 52.5 µM, a TGI [24] of over 100 µM and a TGI [25] of over 100 µM. The TGI [26] was over 91.6 µM, the TGI [27] was over 100 µM and the TGI [28] was over 100 µM. The TGI [29] was over 100 µM, the TGI [30] was over 67.7 µM and the TGI [31] was 15.4 µM. It also gave a TGI [32] of over 89 µM, a TGI [33] of over 100 µM and a TGI [34] of 94.6 µM. For the same compound, the TGI [35] was 85.6 µM, the TGI [36] was over 51.6 µM and the TGI [37] was over 100 µM. The TGI [38] was over 89.7 µM, the TGI [39] was over 100 µM and the TGI [40] was over 100 µM. For the same compound, the TGI [41] was over 55.8 µM, the TGI [42] was over 100 µM and the TGI [43] was over 100 µM. The TGI [44] was over 100 µM, the TGI [45] was over 60.2 µM and the TGI [46] was over 86.9 µM. The TGI [47] was over 100 µM, the TGI [48] was over 100 µM and the TGI [49] was over 100 µM. The TGI [50] was over 59.7 µM, the TGI [51] was over 34.2 µM and the TGI [52] was over 100 µM. The TGI [53] was 49.4 µM, the TGI [54] was over 100 µM and the TGI [55] was over 100 µM. It also gave a TGI [56] of over 72.4 µM, a TGI [57] of over 100 µM and a TGI [58] of over 100 µM.

`Cc1ccc(N=N/C(=N/NC(=O)c2ccccc2)c2ccc(N(CCC#N)CCC#N)cc2C)cc1` showed a TGI [1] of over 100 µM, a TGI [2] of over 100 µM and a TGI [3] of over 100 µM. It also gave a TGI [4] of over 100 µM, a TGI [6] of over 100 µM and a TGI [7] of over 100 µM. For the same compound, the TGI [8] was over 100 µM, the TGI [9] was over 100 µM and the TGI [10] was over 100 µM. It also gave a TGI [11] of over 100 µM, a TGI [12] of over 100 µM and a TGI [13] of over 100 µM. It also gave a TGI [14] of 88.1 µM, a TGI [15] of over 100 µM and a TGI [16] of over 100 µM. The TGI [17] was over 100 µM, the TGI [18] was 64.7 µM and the TGI [19] was over 100 µM. For the same compound, the TGI [20] was over 100 µM, the TGI [21] was over 100 µM and the TGI [22] was over 100 µM. It also gave a TGI [23] of over 100 µM, a TGI [59] of over 100 µM and a TGI [24] of over 100 µM. The TGI [25] was over 100 µM, the TGI [26] was over 100 µM and the TGI [27] was over 100 µM. The TGI [28] was over 100 µM, the TGI [29] was over 100 µM and the TGI [30] was over 100 µM. It also gave a TGI [31] of 42.2 µM, a TGI [32] of over 100 µM and a TGI [34] of over 100 µM. It also gave a TGI [35] of over 100 µM, a TGI [36] of over 100 µM and a TGI [37] of over 100 µM. It also gave a TGI [38] of over 100 µM, a TGI [39] of 46.9 µM and a TGI [40] of over 100 µM. The TGI [41] was over 100 µM, the TGI [42] was over 100 µM and the TGI [43] was over 100 µM. The TGI [44] was over 100 µM, the TGI [45] was over 100 µM and the TGI [47] was over 100 µM. For the same compound, the TGI [48] was 53.7 µM, the TGI [49] was over 100 µM and the TGI [50] was over 100 µM. The TGI [51] was over 100 µM, the TGI [52] was over 100 µM and the TGI [53] was over 100 µM. The TGI [54] was over 100 µM, the TGI [55] was over 100 µM and the TGI [56] was over 100 µM. The TGI [57] was over 100 µM.
